PubChem BioAssay AID1745844 (Carcinogenic Potency Database (CPDB), 2022)
Activity calls are given as the source filed them. No rule for the calls is given here.

Tested on: rodent lifetime carcinogenesis bioassay, tumor incidence TD50
Test: carcinogenic potency in animals, long-term in vivo studies, CPDB compilation (AID 1745844)

Structure (SMILES): O=C1C2(Cl)C3(Cl)C4(Cl)C(Cl)(Cl)C5(Cl)C3(Cl)C1(Cl)C5(Cl)C24Cl (stereo not drawn)
- TD50 (mouse, strain B6C3F1, females, in feed, site: any site (literature study), lesion: several types, types named in the paper, dosed 80 weeks, study length 90 weeks): 1.57 mg/kg/day
- TD50 (mouse, strain B6C3F1, females, in feed, site: liver, lesion: hepatocellular adenoma + hepatocellular carcinoma + neoplastic nodule, dosed 80 weeks, study length 90 weeks): 1.62 mg/kg/day
- TD50 (mouse, strain B6C3F1, females, in feed, site: liver, lesion: hepatocellular carcinoma, dosed 80 weeks, study length 90 weeks): 1.62 mg/kg/day
- TD50 (mouse, strain B6C3F1, males, in feed, site: any site (literature study), lesion: several types, types named in the paper, dosed 80 weeks, study length 89 weeks): 0.705 mg/kg/day
- TD50 (mouse, strain B6C3F1, males, in feed, site: liver, lesion: hepatocellular adenoma + hepatocellular carcinoma + neoplastic nodule, dosed 80 weeks, study length 89 weeks): 0.705 mg/kg/day
- TD50 (mouse, strain B6C3F1, males, in feed, site: liver, lesion: hepatocellular carcinoma, dosed 80 weeks, study length 89 weeks): 0.705 mg/kg/day
- TD50 (mouse, strain B6C3F1, males, in feed, site: lung, lesion: alveolar/bronchiolar adenoma + alveolar/bronchiolar carcinoma, dosed 80 weeks, study length 89 weeks): 29.3 mg/kg/day
- TD50 (rat, strain Osborne-Mendel, females, in feed, site: any site (literature study), lesion: several types, types named in the paper, dosed 80 weeks, study length 109 weeks): 1.83 mg/kg/day
- TD50 (rat, strain Osborne-Mendel, females, in feed, site: liver, lesion: hepatocellular adenoma + hepatocellular carcinoma + neoplastic nodule, dosed 80 weeks, study length 109 weeks): 2.96 mg/kg/day
- TD50 (rat, strain Osborne-Mendel, males, in feed, site: any site (literature study), lesion: several types, types named in the paper, dosed 80 weeks, study length 109 weeks): 1.42 mg/kg/day (inactive)
- TD50 (rat, strain Osborne-Mendel, males, in feed, site: liver, lesion: hepatocellular adenoma + hepatocellular carcinoma + neoplastic nodule, dosed 80 weeks, study length 109 weeks): 2.49 mg/kg/day
- TD50 (rat, strain Sprague-Dawley, males, in feed, site: liver, lesion: neoplastic nodule, dosed 91 weeks, study length 91 weeks): 0.199 mg/kg/day

Structure (SMILES): CN(C)N=Nc1ccccc1
- TD50 (rat, strain BD, both sexes, by gavage, site: any site (literature study), lesion: malignant tumor, dosed 104 weeks, study length 104 weeks): 2.31 mg/kg/day
- TD50 (rat, strain BD, both sexes, by gavage, site: brain, lesion: several types, types named in the paper, dosed 104 weeks, study length 104 weeks): 5.81 mg/kg/day

Structure (SMILES): Cn1cnc2nc(N)[nH]c(=O)c21
- TD50 (rat, strain BR 46, both sexes, i.v., site: any site (literature study), lesion: malignant tumor, dosed 106 weeks, study length 126 weeks): 8.24 mg/kg/day (inactive)

Structure (SMILES): C=Cc1cccc(C)c1
- carcinogen call (mouse, strain B6C3F1, females, inhaled, site: any site (literature study), lesion: several types, types named in the paper, dosed 103 weeks, study length 104 weeks): negative (inactive)
- TD50 (mouse, strain B6C3F1, females, inhaled, site: lung, lesion: alveolar/bronchiolar adenoma + alveolar/bronchiolar carcinoma, dosed 103 weeks, study length 104 weeks): 750 mg/kg/day
- carcinogen call (mouse, strain B6C3F1, males, inhaled, site: any site (literature study), lesion: several types, types named in the paper, dosed 103 weeks, study length 104 weeks): negative (inactive)
- TD50 (rat, strain Fischer 344, females, inhaled, site: any site (literature study), lesion: several types, types named in the paper, dosed 103 weeks, study length 104 weeks): 312 mg/kg/day (inactive)
- carcinogen call (rat, strain Fischer 344, males, inhaled, site: any site (literature study), lesion: several types, types named in the paper, dosed 103 weeks, study length 104 weeks): negative (inactive)

Structure (SMILES): Nc1cc(S(=O)(=O)O)cc2cc(S(=O)(=O)O)c(N=Nc3ccc(-c4ccc(N=Nc5c(S(=O)(=O)O)cc6cc(S(=O)(=O)O)cc(N)c6c5O)cc4)cc3)c(O)c12
- TD50 (rat, strain Fischer 344, females, in feed, site: any site (literature study), lesion: several types, types named in the paper, dosed 13 weeks, study length 13 weeks): 3.21 mg/kg/day
- TD50 (rat, strain Fischer 344, females, in feed, site: liver, lesion: hepatocellular adenoma + hepatocellular carcinoma + neoplastic nodule, dosed 13 weeks, study length 13 weeks): 3.21 mg/kg/day
- TD50 (rat, strain Fischer 344, females, in feed, site: liver, lesion: hepatocellular carcinoma + neoplastic nodule, dosed 13 weeks, study length 13 weeks): 3.21 mg/kg/day
- TD50 (rat, strain Fischer 344, females, in feed, site: liver, lesion: hepatocellular carcinoma, dosed 13 weeks, study length 13 weeks): 5.97 mg/kg/day
- TD50 (rat, strain Fischer 344, males, in feed, site: any site (literature study), lesion: several types, types named in the paper, dosed 13 weeks, study length 13 weeks): 1.18 mg/kg/day
- TD50 (rat, strain Fischer 344, males, in feed, site: liver, lesion: hepatocellular adenoma + hepatocellular carcinoma + neoplastic nodule, dosed 13 weeks, study length 13 weeks): 1.18 mg/kg/day
- TD50 (rat, strain Fischer 344, males, in feed, site: liver, lesion: hepatocellular carcinoma + neoplastic nodule, dosed 13 weeks, study length 13 weeks): 1.18 mg/kg/day

Structure (SMILES): NNC(N)=S
- carcinogen call (mouse, strain Swiss albino, females, in drinking water, site: liver, lesion: hepatoma, dosed 123 weeks, study length 124 weeks): negative (inactive)
- carcinogen call (mouse, strain Swiss albino, females, in drinking water, site: lung, lesion: one or several types, types not named, dosed 123 weeks, study length 124 weeks): negative (inactive)
- carcinogen call (mouse, strain Swiss albino, males, in drinking water, site: liver, lesion: hepatoma, dosed 115 weeks, study length 121 weeks): negative (inactive)
- carcinogen call (mouse, strain Swiss albino, males, in drinking water, site: lung, lesion: one or several types, types not named, dosed 115 weeks, study length 121 weeks): negative (inactive)
- TD50 (rat, strain Charles River CD (Sprague-Dawley), females, in feed, site: mammary gland, lesion: one or several types, types not named, dosed 78 weeks, study length 104 weeks): 3.07 mg/kg/day

Structure (SMILES): CC(=O)Nc1ccc(N=Nc2cc(C)ccc2O)cc1
- TD50 (mouse, strain B6C3F1, females, in feed, site: all sites, lesion: leukemia + lymphoma, dosed 103 weeks, study length 105 weeks): 1510 mg/kg/day
- TD50 (mouse, strain B6C3F1, females, in feed, site: all sites, lesion: lymphoma, dosed 103 weeks, study length 105 weeks): 1680 mg/kg/day
- TD50 (mouse, strain B6C3F1, females, in feed, site: any site (literature study), lesion: several types, types named in the paper, dosed 103 weeks, study length 105 weeks): 769 mg/kg/day
- TD50 (mouse, strain B6C3F1, females, in feed, site: liver, lesion: hepatocellular adenoma + hepatocellular carcinoma + neoplastic nodule, dosed 103 weeks, study length 105 weeks): 1020 mg/kg/day
- TD50 (mouse, strain B6C3F1, females, in feed, site: liver, lesion: hepatocellular adenoma + hepatocellular carcinoma, dosed 103 weeks, study length 105 weeks): 1020 mg/kg/day
- TD50 (mouse, strain B6C3F1, females, in feed, site: liver, lesion: hepatocellular adenoma, dosed 103 weeks, study length 105 weeks): 1340 mg/kg/day
- TD50 (mouse, strain B6C3F1, males, in feed, site: any site (literature study), lesion: several types, types named in the paper, dosed 103 weeks, study length 104 weeks): 17200 mg/kg/day
- TD50 (mouse, strain B6C3F1, males, in feed, site: lung, lesion: alveolar/bronchiolar adenoma + alveolar/bronchiolar carcinoma, dosed 103 weeks, study length 104 weeks): 2440 mg/kg/day
- TD50 (mouse, strain B6C3F1, males, in feed, site: lung, lesion: alveolar/bronchiolar adenoma, dosed 103 weeks, study length 104 weeks): 2150 mg/kg/day (inactive)
- carcinogen call (rat, strain Fischer 344, females, in feed, site: any site (literature study), lesion: several types, types named in the paper, dosed 103 weeks, study length 104 weeks): negative (inactive)
- TD50 (rat, strain Fischer 344, females, in feed, site: liver, lesion: hepatocellular adenoma + hepatocellular carcinoma + neoplastic nodule, dosed 103 weeks, study length 104 weeks): 46800 mg/kg/day
- TD50 (rat, strain Fischer 344, males, in feed, site: liver, lesion: hepatocellular adenoma + hepatocellular carcinoma + neoplastic nodule, dosed 103 weeks, study length 104 weeks): 833 mg/kg/day
- TD50 (rat, strain Fischer 344, males, in feed, site: liver, lesion: hepatocellular carcinoma + neoplastic nodule, dosed 103 weeks, study length 104 weeks): 833 mg/kg/day
- TD50 (rat, strain Fischer 344, males, in feed, site: liver, lesion: neoplastic nodule, dosed 103 weeks, study length 104 weeks): 380 mg/kg/day
- TD50 (rat, strain Fischer 344, males, in feed, site: stomach, lesion: all tumors, dosed 103 weeks, study length 104 weeks): 4090 mg/kg/day

Structure (SMILES): Cn1cc(OCC(O)CNC(C)(C)C)c2ccccc2c1=O (stereo not drawn)
- carcinogen call (mouse, strain Charles River CD1, females, by gavage, site: any site (literature study), lesion: several types, types named in the paper, dosed 80 weeks, study length 80 weeks): negative (inactive)
- carcinogen call (mouse, strain Charles River CD1, females, by gavage, site: liver, lesion: one or several types, types not named, dosed 80 weeks, study length 80 weeks): negative (inactive)
- carcinogen call (mouse, strain Charles River CD1, females, by gavage, site: lung, lesion: adenocarcinoma, dosed 80 weeks, study length 80 weeks): negative (inactive)
- TD50 (mouse, strain Charles River CD1, females, by gavage, site: lung, lesion: adenoma, dosed 80 weeks, study length 80 weeks): 843 mg/kg/day (inactive)
- TD50 (mouse, strain Charles River CD1, males, by gavage, site: any site (literature study), lesion: several types, types named in the paper, dosed 80 weeks, study length 80 weeks): 256 mg/kg/day (inactive)
- TD50 (mouse, strain Charles River CD1, males, by gavage, site: liver, lesion: hepatocellular adenoma, dosed 80 weeks, study length 80 weeks): 131 mg/kg/day (inactive)
- carcinogen call (mouse, strain Charles River CD1, males, by gavage, site: liver, lesion: hepatocellular carcinoma, dosed 80 weeks, study length 80 weeks): negative (inactive)
- TD50 (mouse, strain Charles River CD1, males, by gavage, site: lung, lesion: adenocarcinoma, dosed 80 weeks, study length 80 weeks): 99.2 mg/kg/day (inactive)
- TD50 (mouse, strain Charles River CD1, males, by gavage, site: lung, lesion: adenoma, dosed 80 weeks, study length 80 weeks): 7200 mg/kg/day (inactive)
- TD50 (rat, strain Charles River CD (Sprague-Dawley), females, by gavage, site: any site (literature study), lesion: several types, types named in the paper, dosed 104 weeks, study length 104 weeks): 40 mg/kg/day (inactive)
- carcinogen call (rat, strain Charles River CD (Sprague-Dawley), females, by gavage, site: liver, lesion: hepatocellular adenoma, dosed 104 weeks, study length 104 weeks): negative (inactive)
- TD50 (rat, strain Charles River CD (Sprague-Dawley), males, by gavage, site: any site (literature study), lesion: several types, types named in the paper, dosed 104 weeks, study length 104 weeks): 128 mg/kg/day (inactive)
- TD50 (rat, strain Charles River CD (Sprague-Dawley), males, by gavage, site: liver, lesion: hepatocellular adenoma, dosed 104 weeks, study length 104 weeks): 384 mg/kg/day (inactive)
- carcinogen call (rat, strain Charles River CD (Sprague-Dawley), males, by gavage, site: liver, lesion: hepatocellular carcinoma, dosed 104 weeks, study length 104 weeks): negative (inactive)

Structure (SMILES): Clc1ccccc1
- TD50 (mouse, strain B6C3F1, females, by gavage, site: any site (literature study), lesion: several types, types named in the paper, dosed 103 weeks, study length 105 weeks): 373 mg/kg/day (inactive)
- TD50 (mouse, strain B6C3F1, females, by gavage, site: liver, lesion: hepatocellular adenoma + hepatocellular carcinoma + neoplastic nodule, dosed 103 weeks, study length 105 weeks): 235 mg/kg/day
- TD50 (mouse, strain B6C3F1, females, by gavage, site: lung, lesion: alveolar/bronchiolar adenoma + alveolar/bronchiolar carcinoma, dosed 103 weeks, study length 105 weeks): 623 mg/kg/day
- TD50 (mouse, strain B6C3F1, males, by gavage, site: any site (literature study), lesion: several types, types named in the paper, dosed 103 weeks, study length 105 weeks): 60.1 mg/kg/day (inactive)
- TD50 (mouse, strain B6C3F1, males, by gavage, site: liver, lesion: hepatocellular adenoma + hepatocellular carcinoma + neoplastic nodule, dosed 103 weeks, study length 105 weeks): 382 mg/kg/day
- TD50 (mouse, strain B6C3F1, males, by gavage, site: lung, lesion: alveolar/bronchiolar adenoma + alveolar/bronchiolar carcinoma, dosed 103 weeks, study length 105 weeks): 190 mg/kg/day
- TD50 (rat, strain Fischer 344, females, by gavage, site: liver, lesion: hepatocellular adenoma + hepatocellular carcinoma + neoplastic nodule, dosed 103 weeks, study length 104 weeks): 867 mg/kg/day
- TD50 (rat, strain Fischer 344, females, by gavage, site: parathyroid + thyroid gland + thyroid follicle, lesion: adenoma, NOS + follicular-cell carcinoma + cystadenoma, NOS, dosed 103 weeks, study length 104 weeks): 520 mg/kg/day (inactive)
- TD50 (rat, strain Fischer 344, males, by gavage, site: any site (literature study), lesion: several types, types named in the paper, dosed 103 weeks, study length 104 weeks): 190 mg/kg/day
- TD50 (rat, strain Fischer 344, males, by gavage, site: liver, lesion: hepatocellular adenoma + hepatocellular carcinoma + neoplastic nodule, dosed 103 weeks, study length 104 weeks): 328 mg/kg/day
- TD50 (rat, strain Fischer 344, males, by gavage, site: liver, lesion: neoplastic nodule, dosed 103 weeks, study length 104 weeks): 247 mg/kg/day

Structure (SMILES): Nc1ccc(-c2ccc(N)c(O)c2)cc1O
- TD50 (mouse, strain ICR/Jcl, males, in feed, site: liver, lesion: hepatoma, dosed 65 weeks, study length 65 weeks): 353 mg/kg/day
